Assay results reported in article PMC5754413, “Mass balance, metabolic disposition, and pharmacokinetics of a single oral dose of regorafenib in healthy human subjects” (Cancer Chemotherapy and Pharmacology, 2017).
Where two headings read alike, the source gives them in different places.

Experiments:
[1] = Pharmacokinetics of regorafenib in plasma (HPLC–MS/MS) after a single oral 120 mg dose in healthy male subjects; type: in vivo, human; conditions: for half-life: plasma
Experimental: Subjects were screened within the 28 days before scheduled drug administration and entered the clinical unit 1 day before drug administration. After an overnight fasting, subjects received a single oral 120 mg dose of regorafenib, containing approximately 100 μCi (3.7 MBq) [^14C]regorafenib, as a 6 mL solution in an aqueous PEG-based vehicle (Diluent Sol 30 mL oral, Bayer HealthCare AG) followed by 240 mL water. The associated radiation exposure fell within International Commission on Radiological Protection Guidelines for Category IIa studies (0.1–1 mSv).
Blood and plasma: Blood samples (18.7 mL per each time point) were collected into nonbeaded lithium-heparinized tubes immediately pre-dose and at the following post-dose times: 0.5, 1, 1.5, 2, 2.5, 3, 4, 6, 9, 12, 16, 20, 24, 36, 48, 72, 96, 120, 144, 192, 240, and 288 h. For each sample, 1 mL of whole blood was stored at 4 °C for subsequent LSC and the remainder was processed for plasma. Individual 150 μL plasma samples for each time point were treated with formic acid (20 μL) and acetonitrile (450 μL). The samples were homogenized using a MS2 Minishaker® (IKA® Labortechnik, Staufen im Breisgau, Germany). The precipitated proteins were removed by centrifugation (5 min, 13,000 rpm, Biofuge). After concentrating the supernatant to about 80 μL, methanol (15 μL) was added. The individual samples were analyzed by HPLC with off-line radioactivity detection for metabolite profiling.
Quantitative analysis of regorafenib in plasma was performed after protein precipitation using a fully validated HPLC–MS/MS assay. The analyses were performed in accordance with the 2001 FDA guidelines on bioanalytical validation. [^2H3,^15N]-regorafenib was used as internal standard (final concentration: 12.5 µg/L). The calibration range was from 2.00 µg/L to 2.00 mg/L. Quality control samples in the concentration range 5.00 µg/L to […] were determined with an accuracy of 98.1–103% and a precision of 1.55–10.0% (n = 6–8/concentration). All samples were stored at or below − 15 °C and analyzed within 14 days after sample receipt.
Pharmacokinetic outcome measures were generated by non-compartmental analysis of plasma concentration–time data using WinNonlin v4.1 (Pharsight Corporation) in conjunction with Kincalc v2.50 (Bayer AG). For individual subjects, primary outcome measures were maximum observed concentration (C max) and area under the concentration–time curve from time zero to infinity (AUC). […] The metabolite or regorafenib percentages were calculated by AUC(0–144)metabolite or regorafenib divided by AUC(0–144)radioactivity calculated from data obtained by HPLC–LSC analysis. Secondary outcomes were: time to C max (t max); apparent terminal elimination half-life (t ½); apparent volume of distribution during the terminal phase after extravascular administration (Vz/F); and total body clearance of drug calculated after extravascular administration (e.g., apparent oral clearance) (CL/F). AUC was estimated by the sum of partial areas: partial areas were calculated using the linear (if C i ≤ C i+1) or the logarithmic (if C i > C i+1) trapezoidal rules. The quality of the half-life calculation was assessed based on graphs showing the concentration–time profile. For reliable calculation of the half-life, at least three data points (concentration/time values) were used. The extrapolated portion of the AUC from the last measured data point C(t n) to infinity was calculated using the concentration C last,calc, which was calculated from the log-linear regression line used for half-life calculation rather than C(t n). In addition, appropriate pharmacokinetic parameters were derived from the total radioactivity-versus-time data in blood and plasma.

human feces = assay: Incubation with human feces under anaerobic conditions; type: in vitro ADME; conditions: anaerobic conditions, ex vivo
Experimental: Under anaerobic conditions, a suspension of fresh human feces (about 0.5 g) in degassed water (final volume 5 mL) was treated with a solution of [^14C]-labelled metabolite M-2 or metabolite M-7 (1 mg/mL acetonitrile; final concentration: 10 μM). After incubation for 24 h at 37 °C, the incubation mixture was terminated by the addition of acetonitrile (2 mL). After centrifugation (5 min, 3000 rpm), the supernatant (25 μL) was directly subjected to HPLC with the respective off-line radioactivity detection. As negative controls, metabolites M-2 and M-7 were incubated in water for 24 h at 37 °C.

[2] = design: method as in PMID 24896071; conditions: co-administration of ketoconazole with a single 160 mg dose of regorafenib; cited from earlier work
[3] = male, human, regorafenib in plasma, LC–MS/MS, single oral 120 mg solution, N = 4, geometric mean (%CV)

CNC(=O)c1cc(Oc2ccc(NC(=O)Nc3ccc(Cl)c(C(F)(F)F)c3)c(F)c2)ccn1 [Regorafenib, 4-[4-({[4-chloro-3-(trifluoromethyl)phenyl]carbamoyl}amino)-3-fluorophenoxy]-N-methylpyridine-2-carboxamide]
half-life ([1]; human, oral, 120 mg, except for subject 003, read-out: Half-lives for regorafenib, range between subjects): 39 to 48 h | half-life ([1]; human, oral, 120 mg, subject 003, read-out: Calculated t 1/2 for regorafenib (converted)): ~62 h | Vd/F ([1]; male, human, oral, 120 mg, regorafenib in plasma, geometric mean (%CV), N = 4, read-out: Vz/F): 216 L | Tmax ([1]; male, human, oral, 120 mg, regorafenib in plasma, median (range), N = 4): 1.25 h | half-life ([1]; male, human, oral, 120 mg, regorafenib in plasma, geometric mean (%CV), N = 4, read-out: t 1/2 (converted)): 48.6 h | AUC [1, 3]: 39000 ng·h/mL | Cmax [1, 3]: 1580 ng/mL | CL/F ([1]; regorafenib in plasma, geometric mean (%CV), N = 4): 3.08 (34.9) L/h | Stability in feces / toward gut flora (human feces): stable | Increase in mean AUC [2]: 30–40% | Increase in mean C max [2]: 30–40%
